# According to ChEMBL document CHEMBL5257023, “Identification of leads for antiproliferative activity on MDA-MB-435 human breast cancer cells through pharmacophore and CYP1A1-mediated metabolism” (Eur J Med Chem, 2016):
# What was measured:
# [1] = system: NCI-H226; assay: Anticancer activity against human NCI-H226 cells assessed as cell growth at 10 uM incubated for 48 hrs by SRB assay; format: functional; settings: read-out: Activity
# [2] = system: MCF7; assay: Anticancer activity against human MCF7 cells assessed as cell growth at 0.1 uM incubated for 48 hrs by SRB assay; format: functional; settings: read-out: Activity
# [3] = target: T1, CYP1A1 (Homo sapiens, UniProt P04798); assay: Inhibition of recombinant CYP1A1 (unknown origin) assessed as residual enzyme activity using 7-ethoxyresorufin as substrate at 0.1 uM incubated for 15 mins by resorufin dye based spectrofluorimetry (reference value: 100%); format: ADME; settings: recombinant CYP1A1, probe 7-ethoxyresorufin, read-out: Activity
# T1 sequence (P04798 whole entry): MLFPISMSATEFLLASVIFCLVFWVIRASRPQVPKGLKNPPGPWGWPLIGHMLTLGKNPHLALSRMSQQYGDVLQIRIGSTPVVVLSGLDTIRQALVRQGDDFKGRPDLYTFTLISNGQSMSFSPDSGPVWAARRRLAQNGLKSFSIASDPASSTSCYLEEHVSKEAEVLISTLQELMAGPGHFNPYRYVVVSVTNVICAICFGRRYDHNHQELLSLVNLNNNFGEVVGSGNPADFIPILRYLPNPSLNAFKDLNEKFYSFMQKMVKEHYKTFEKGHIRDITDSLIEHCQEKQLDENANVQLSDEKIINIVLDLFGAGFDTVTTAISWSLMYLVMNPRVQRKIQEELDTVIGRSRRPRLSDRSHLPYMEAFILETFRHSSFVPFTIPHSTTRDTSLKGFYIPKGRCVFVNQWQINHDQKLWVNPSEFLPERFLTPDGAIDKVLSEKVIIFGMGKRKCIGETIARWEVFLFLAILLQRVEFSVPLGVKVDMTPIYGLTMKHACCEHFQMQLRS
# [4] = system: MDA-MB-435; assay: Anticancer activity against human MDA-MB-435 cells assessed as cell growth at 10 uM incubated for 48 hrs by SRB assay; format: functional; settings: read-out: Activity
# [5] = system: MDA-MB-468; assay: Anticancer activity against human MDA-MB-468 cells assessed as inhibition of cell growth incubated for 48 hrs by SRB assay; format: functional
# [6] = target: T1, CYP1A1; assay: Inhibition of recombinant CYP1A1 (unknown origin) assessed as residual enzyme activity using 7-ethoxyresorufin as substrate at 1 uM incubated for 15 mins by resorufin dye based spectrofluorimetry (reference value: 100%); format: ADME; settings: recombinant CYP1A1, probe 7-ethoxyresorufin, read-out: Activity
# [7] = system: MCF7; assay: Anticancer activity against human MCF7 cells assessed as cell growth at 100 uM incubated for 48 hrs by SRB assay; format: functional; settings: read-out: Activity
# [8] = system: NCI-H226; assay: Anticancer activity against human NCI-H226 cells assessed as cell growth at 0.1 uM incubated for 48 hrs by SRB assay; format: functional; settings: read-out: Activity
# [9] = target: T1, CYP1A1; assay: Inhibition of recombinant CYP1A1 (unknown origin) assessed as residual enzyme activity using 7-ethoxyresorufin as substrate at 100 uM incubated for 15 mins by resorufin dye based spectrofluorimetry (reference value: 100%); format: ADME; settings: recombinant CYP1A1, probe 7-ethoxyresorufin, read-out: Activity
# [10] = system: MCF7; assay: Anticancer activity against human MCF7 cells assessed as cell growth at 1 uM incubated for 48 hrs by SRB assay; format: functional; settings: read-out: Activity
# [11] = target: T1, CYP1A1; assay: Inhibition of recombinant CYP1A1 (unknown origin) assessed as residual enzyme activity using 7-ethoxyresorufin as substrate at 50 uM incubated for 15 mins by resorufin dye based spectrofluorimetry (reference value: 100%); format: ADME; settings: recombinant CYP1A1, probe 7-ethoxyresorufin, read-out: Activity
# [12] = system: MDA-MB-468; assay: Anticancer activity against human MDA-MB-468 cells assessed as cell growth at 0.1 uM incubated for 48 hrs by SRB assay; format: functional; settings: read-out: Activity
# [13] = system: MDA-MB-435; assay: Anticancer activity against human MDA-MB-435 cells assessed as inhibition of cell growth incubated for 48 hrs by SRB assay; format: functional
# [14] = target: T2, Cytochrome P450 1A1 (Homo sapiens, UniProt P04798); assay: Inhibition of recombinant CYP1A1 (unknown origin) assessed as decrease in EROD activity using 7-ethoxyresorufin as substrate incubated for 15 mins by resorufin dye based spectrofluorimetry; format: ADME
# T2 sequence (P04798 whole entry): T1 sequence (P04798 whole entry)
# [15] = target: T1, CYP1A1; assay: Inhibition of recombinant CYP1A1 (unknown origin) assessed as residual enzyme activity using 7-ethoxyresorufin as substrate at 0.01 uM incubated for 15 mins by resorufin dye based spectrofluorimetry (reference value: 100%); format: ADME; settings: recombinant CYP1A1, probe 7-ethoxyresorufin, read-out: Activity
# [16] = system: MCF7; assay: Anticancer activity against human MCF7 cells assessed as inhibition of cell growth incubated for 48 hrs by SRB assay; format: functional
# [17] = system: NCI-H226; assay: Anticancer activity against human NCI-H226 cells assessed as cell growth at 100 uM incubated for 48 hrs by SRB assay; format: functional; settings: read-out: Activity
# [18] = system: MDA-MB-468; assay: Anticancer activity against human MDA-MB-468 cells assessed as cell growth at 1 uM incubated for 48 hrs by SRB assay; format: functional; settings: read-out: Activity
# [19] = system: MDA-MB-435; assay: Anticancer activity against human MDA-MB-435 cells assessed as cell growth at 100 uM incubated for 48 hrs by SRB assay; format: functional; settings: read-out: Activity
# [20] = system: MCF7; assay: Anticancer activity against human MCF7 cells assessed as cell growth at 10 uM incubated for 48 hrs by SRB assay; format: functional; settings: read-out: Activity
# [21] = target: T1, CYP1A1; assay: Inhibition of recombinant CYP1A1 (unknown origin) assessed as residual enzyme activity using 7-ethoxyresorufin as substrate at 5 uM incubated for 15 mins by resorufin dye based spectrofluorimetry (reference value: 100%); format: ADME; settings: recombinant CYP1A1, probe 7-ethoxyresorufin, read-out: Activity
# [22] = system: NCI-H226; assay: Anticancer activity against human NCI-H226 cells assessed as inhibition of cell growth incubated for 48 hrs by SRB assay; format: functional
# [23] = system: MDA-MB-435; assay: Anticancer activity against human MDA-MB-435 cells assessed as cell growth at 1 uM incubated for 48 hrs by SRB assay; format: functional; settings: read-out: Activity
# [24] = system: NCI-H226; assay: Anticancer activity against human NCI-H226 cells assessed as cell growth at 1 uM incubated for 48 hrs by SRB assay; format: functional; settings: read-out: Activity
# [25] = system: MDA-MB-468; assay: Anticancer activity against human MDA-MB-468 cells assessed as cell growth at 10 uM incubated for 48 hrs by SRB assay; format: functional; settings: read-out: Activity
# [26] = system: MDA-MB-468; assay: Anticancer activity against human MDA-MB-468 cells assessed as cell growth at 100 uM incubated for 48 hrs by SRB assay; format: functional; settings: read-out: Activity
# [27] = system: MDA-MB-435; assay: Anticancer activity against human MDA-MB-435 cells assessed as cell growth at 0.1 uM incubated for 48 hrs by SRB assay; format: functional; settings: read-out: Activity
# [28] = read-out: LC50 (the source's name)
structure (smiles),measurement,setting,value
Cc1sc2[nH]c(CNc3ccc(F)cc3)nc(=O)c2c1C,growth at 10 µM,[1],77.9%
same,growth at 0.1 µM,[2],96.5%
same,"activity at 0.25 h, 0.1 µM",[3],85.3%
same,growth at 10 µM,[4],94.6%
same,GI50,[5],> 100 µM
same,TGI,[5],> 100 µM
same,CC50,[5]; [28],> 100 µM
same,"activity at 0.25 h, 1 µM",[6],46%
same,growth at 100 µM,[7],26.3%
same,growth at 0.1 µM,[8],91.4%
same,"activity at 0.25 h, 100 µM",[9],9.07%
same,growth at 1 µM,[10],94%
same,"activity at 0.25 h, 50 µM",[11],13.5%
same,growth at 0.1 µM,[12],99.2%
same,GI50,[13],> 100 µM
same,LC50,[13],> 100 µM
same,TGI,[13],> 100 µM
same,IC50,[14],0.7 µM
same,"activity at 0.25 h, 0.01 µM",[15],91.7%
same,GI50,[16],65.8 µM
same,TGI,[16],> 100 µM
same,CC50,[16]; [28],> 100 µM
same,growth at 100 µM,[17],51.9%
same,growth at 1 µM,[18],95%
same,growth at 100 µM,[19],83.5%
same,growth at 10 µM,[20],84.1%
same,"activity at 0.25 h, 5 µM",[21],23.9%
same,GI50,[22],> 100 µM
same,LC50 (concentration killing 50% of cells),[22],> 100 µM
same,TGI,[22],> 100 µM
same,growth at 1 µM,[23],97.9%
same,growth at 1 µM,[24],86.9%
same,growth at 10 µM,[25],94.4%
same,growth at 100 µM,[26],56.8%
same,growth at 0.1 µM,[27],99.9%
